Data set [1] in a line: in vivo. Also noted: species or system Sprague-Dawley rats. The settings on record: rat; for bioavailability: male, Sprague-Dawley, po, 20 mg/kg; for half-life: male Sprague-Dawley rats. The protocol: The pharmacokinetics of compounds 4a, 6a, and 12 was evaluated in male Sprague-Dawley rats (n=3) following single intravenous (i.v., 1 mg/kg) or oral (p.o., 20 mg/kg) doses.

Data set [2] concerns the target T1, GLP-1 receptor (Homo sapiens, UniProt P43220). Nature of the data set: FLIPR calcium flux assay, agonist format, GLP-1. It is filed as cell-based. Particulars: Emax of reference ligand Glucagon as 100%. The protocol: (§1) A FLIPR assay was conducted to monitor agonist and antagonist selectivity for compounds of the invention against the CBI and GLP-1 receptors. Percentage activation and percentage inhibition values were determined for each compound on each of the GPCRs listed above. Agonist selectivity was determined upon initial addition of compounds followed by 10 minute incubation at 25° C. Following compound incubation, reference agonists were added at EC80 to determine percentage inhibition.
(§2) Agonist percentage activation determinations were obtained by assaying sample compounds and referencing the Emax control for each of the GPCRs profiled. Antagonist percentage inhibition determinations were obtained by assaying sample compounds and referencing the control EC80 wells for each of the GPCRs profiled. The protocol design is as follows:
(§3) Unless specified otherwise, all sample compounds were diluted in 100% anhydrous DMSO including all serial dilutions. Occasionally sample compounds were provided in a different solvent, in this case all master stock dilutions were performed in the specified diluent. All control wells contained identical solvent final concentrations as sample compound wells.
(§4) Sample compounds were transferred from a master stock solution into a daughter plate that was used in the assay. Each sample compound was diluted into assay buffer (1×HBSS with 20 mM HEPES) at an appropriate concentration to obtain final concentrations.
(§5) All sample compounds were plated at 1 μM in duplicate for assaying against all GPCRs. Reference agonists were handled as mentioned above serving as assay control. These reference agonists were handled as described above for both EMax and EC80 control wells. Assay was read for 90 seconds using the FLIPRTETRA. (This assay run added sample compounds and reference agonist to respective rows.) At the completion of the first “Single Addition” assay run, assay plate was removed from the FLIPRTetra and placed at 25° C. for 10 minutes.
(§6) All plates were subjected to appropriate baseline corrections. Once baseline corrections were processed, maximum fluorescence values were exported and data manipulated to calculate percentage activation, percentage inhibition, Z′, EC50, and IC50. Percentage activation data was calculated using Emax as 100% control. Percentage inhibition was calculated using EC80 as 0% inhibition.
A general note: A change in cytosolic calcium serves as a functional read-out for many receptors and channels.

Data set [3] concerns the target T1, GLP-1 receptor. Nature of the data set: FLIPR calcium flux assay, antagonist format, GLP-1. It is filed as cell-based. The settings on record: 1 μM, reference ligand Glucagon at EC80 as 0% inhibition; read-out: % Inhibition Antagonist GLP-1. The protocol: as §1, §2, §3, §4
(§7) Using the EC50 values determined previously, stimulated all pre-incubated sample compound and reference antagonist (if applicable) wells with EC80 of reference agonist. Read for 90 seconds using the FLIPRTETRA. (This assay added reference agonist to respective wells—then fluorescence measurements were collected to calculate percentage inhibition.)
as §6

For data set [4], the target named is T2, CB1 receptor (Homo sapiens, UniProt P21554). Description: FLIPR calcium flux assay, agonist format, CB1. The settings on record: Emax of reference agonist CP-55,940 as 100%. It is filed as cell-based. The protocol: as §1, §2, §3, §4, §5, §6
T2 sequence (P21554 whole entry): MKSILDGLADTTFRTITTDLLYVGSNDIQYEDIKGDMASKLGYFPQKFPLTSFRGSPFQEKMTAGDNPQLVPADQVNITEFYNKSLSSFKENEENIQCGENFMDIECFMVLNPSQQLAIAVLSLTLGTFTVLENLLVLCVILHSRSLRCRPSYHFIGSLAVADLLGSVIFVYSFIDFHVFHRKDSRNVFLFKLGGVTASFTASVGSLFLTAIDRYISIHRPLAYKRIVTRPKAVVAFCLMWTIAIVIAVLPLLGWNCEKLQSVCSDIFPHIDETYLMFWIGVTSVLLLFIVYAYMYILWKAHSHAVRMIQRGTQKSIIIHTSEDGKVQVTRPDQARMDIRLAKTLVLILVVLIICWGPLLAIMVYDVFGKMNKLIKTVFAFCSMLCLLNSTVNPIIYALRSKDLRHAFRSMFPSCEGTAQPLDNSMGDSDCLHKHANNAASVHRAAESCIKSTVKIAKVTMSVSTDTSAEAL
Data set [5] concerns the target T2, CB1 receptor. Description: FLIPR calcium flux assay, antagonist format, CB1. Format: cell-based. Particulars: reference agonist CP-55,940 at EC80 as 0% inhibition. The protocol: as §1, §2, §3, §4, §7, §6
Data set [6] has as its system non-insulin dependent diabetic mellitus (NIDDM) male mice (C57BL/KsJ-db/db Jcl). Nature of the data set: In vivo analysis in the db/db mouse (serum insulin, serum glucose, weight). The settings on record: for percentage increase in insulin levels: FIG. 1; for percentage decrease in glucose levels: FIG. 2; for percentage decrease in weight: FIG. 3. As to the method:
[…] All animals were allowed free access to normal laboratory chow and water.
Serum glucose and insulin levels were determined by Enzymatic Method (Mutaratase-GOD) and ELISA (mouse insulin assay kit) from orbital sinus blood samples obtained before (pretreatment) and 90 minutes after the last vehicle and/or test substance administration (postreatment) and percent change was determined.

Setting [7] is: iv, single i.v. dose 1 mg/kg, read-out: t1/2 (i.v., hr) (converted).
Setting [8] is: single oral dose 20 mg/kg, read-out: t1/2 (p.o., hr) (converted).
The mark [9] stands for this setting: 200 mg/kg oral gavage once daily for three days.

Where two headings read alike, the source gives them in different places.

T1 sequence (P43220 24-463): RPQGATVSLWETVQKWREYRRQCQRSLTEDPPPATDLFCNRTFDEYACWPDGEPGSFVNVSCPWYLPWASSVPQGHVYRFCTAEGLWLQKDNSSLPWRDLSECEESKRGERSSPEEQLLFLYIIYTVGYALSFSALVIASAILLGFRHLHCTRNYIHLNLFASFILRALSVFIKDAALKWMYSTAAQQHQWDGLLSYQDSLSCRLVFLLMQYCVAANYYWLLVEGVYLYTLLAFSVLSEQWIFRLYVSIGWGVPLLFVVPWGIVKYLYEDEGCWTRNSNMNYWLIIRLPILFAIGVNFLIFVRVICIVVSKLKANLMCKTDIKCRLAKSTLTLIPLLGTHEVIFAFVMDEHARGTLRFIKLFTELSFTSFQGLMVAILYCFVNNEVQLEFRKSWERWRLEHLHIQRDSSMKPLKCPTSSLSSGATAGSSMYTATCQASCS

For orientation: bioavailability means dose-corrected exposure relative to a reference, in per cent. The low end stands for little systemic uptake, the high end for much systemic uptake. As a reminder, the inhibition is the drop in the measured response relative to a control, in per cent. In the case of `CC(C)Cc1ccc([C@H](C)C(=O)NCC[C@@H](Oc2ccc(C(F)(F)F)cc2)c2ccccc2)cc1` [Compound 4a], the bioavailability in data set [1] turned out to be 5.1%. Further, the results for the half-life in data set [1] (setting [7]) and in data set [1] (setting [8]) were 0.6 h and 1 h, respectively. In addition, the activation at 1 µM in data set [2] was determined as 39.9%; in data set [4], 3.2%. Moreover, the inhibition at 1 µM in data set [3] is -21.8%; in data set [5], 7.7%.

With `C[C@H](C(=O)NCC[C@@H](Oc1ccc(C(F)(F)F)cc1)c1ccccc1)c1cccc(C(=O)c2ccccc2)c1` [Compound 6a], the “percentage increase in insulin levels” value in data set [6] (setting [9]) is recorded as “significant increases”. For the same compound, the “percentage decrease in glucose levels” value in data set [6] (setting [9]) is given as “significant decreases”. In addition, the “percentage decrease in weight” value in data set [6] (setting [9]) is given as “significant decreases”. The same compound gave a bioavailability in data set [1] of 14.8%. Moreover, the half-life was 1.4 h in data set [1] (setting [7]) and 2.1 h in data set [1] (setting [8]). Further, the activation at 1 µM was determined as 38.6% in data set [2] and 4.2% in data set [4]. For the same compound, the inhibition at 1 µM in data set [3] is -7.2%; in data set [5], 77.9%.

Consider `CC(C)Cc1ccc([C@H](C)C(=O)N(C)CCC(Oc2ccc(C(F)(F)F)cc2)c2ccccc2)cc1` (some centres unmarked) [Compound 12], for which the bioavailability in data set [1] was determined as 6.5%. The half-life was 1.7 h in data set [1] (setting [7]) and 1.4 h in data set [1] (setting [8]). Further, the activation at 1 µM stood at 44.6% in data set [2] and 4.1% in data set [4]. Further, the inhibition at 1 µM was -14.9% in data set [3] and 3.2% in data set [5].

For `CC(C)Cc1ccc([C@H](C)C(=O)N(C)CC[C@@H](Oc2ccc(C(F)(F)F)cc2)c2ccccc2)cc1` [Compound 12a], in data set [6] (setting [9]), the “percentage increase in insulin levels” value is given as “significant increases”, the “percentage decrease in glucose levels” value is listed as “significant decreases” and the “percentage decrease in weight” value is on record as “significant decreases”. Besides, the activation at 1 µM in data set [2] stood at 7.6%. In data set [3], the inhibition at 1 µM was 4.5%. Also, the activation at 1 µM in data set [4] amounted to 3.6%. In addition, the inhibition at 1 µM in data set [5] worked out at 52.2%.

As to `CC(C)Cc1ccc([C@H](C)C(=O)N(C)CC[C@H](Oc2ccc(C(F)(F)F)cc2)c2ccccc2)cc1` [Compound 12b], the “percentage increase in insulin levels” value in data set [6] (100 mg/kg oral gavage once daily for three days) was “significant increase”; in data set [6] (setting [9]), “significant increases”. Further, the “percentage decrease in glucose levels” value in data set [6] (setting [9]) is listed as “significant decreases”. The “percentage decrease in weight” value in data set [6] (setting [9]) was “significant decreases”. Further, the activation at 1 µM in data set [2] turned out to be 24.5%; in data set [4], 8.3%. The inhibition at 1 µM in data set [3] is 5.9%; in data set [5], 1.6%.

On to `CCc1ccc(C(C)C(=O)N(C)CC[C@H](Oc2ccc(C(F)(F)F)cc2)c2ccccc2)cc1` (some centres unmarked) [Compound 34b], for which the activation at 1 µM is 0.2% in data set [2] and -1.9% in data set [4]. The inhibition at 1 µM was determined as 1.6% in data set [3] and 76.4% in data set [5].

On to `CC(C)Cc1cccc(C(C)C(=O)N(C)CC[C@@H](Oc2ccc(C(F)(F)F)cc2)c2ccccc2)c1` (some centres unmarked) [Compound 35a], for which the figures for the activation at 1 µM in data set [2] and in data set [4] were -0.9% and -1%, respectively. Besides, the inhibition at 1 µM in data set [3] came out at 7.7%; in data set [5], 80.5%.

Regarding `CC(C)Cc1cccc(C(C)C(=O)N(C)CC[C@H](Oc2ccc(C(F)(F)F)cc2)c2ccccc2)c1` (some centres unmarked) [Compound 35b], the activation at 1 µM was determined as 3.8% in data set [2] and 1.1% in data set [4]. In addition, the values for the inhibition at 1 µM in data set [3] and in data set [5] were 0.3% and 38.9%, respectively.

With `CC(C)Cc1ccc(C2(C(=O)N(C)CC[C@@H](Oc3ccc(C(F)(F)F)cc3)c3ccccc3)CC2)cc1` [Compound 36a], the results for the activation at 1 µM in data set [2] and in data set [4] were 4.4% and -1.2%, respectively. Further, the inhibition at 1 µM in data set [3] turned out to be 11%; in data set [5], 59.9%.

As to `CC(C)Cc1ccc(C2(C(=O)N(C)CC[C@H](Oc3ccc(C(F)(F)F)cc3)c3ccccc3)CC2)cc1` [Compound 36b], the activation at 1 µM in data set [2] was 0.5%; in data set [4], -1.1%. Moreover, the inhibition at 1 µM in data set [3] was 5.5%; in data set [5], 15.5%.

Regarding `CN(C)C(=N)N=C(N)N` [metformin, reference compound], in data set [6] (300 mg/kg oral), the “percentage increase in insulin levels” value is “does not show an increase”, the “percentage decrease in glucose levels” value is given as “significant decrease” and the “percentage decrease in weight” value is “does not show a decrease”.

Source of the values: patent publication US20100292289A1 (priority 2007, published 2010).
